Reference: US20240300959A1, “BALASUBRAMIDE DERIVATIVE AND USE THEREOF IN PREPARATION OF MEDICINE FOR TREATING ACUTE LUNG INJURY” (Guangdong Pharmaceutical University, priority 2023, published 2024)
“And” between values parts separate entries of the source, which are not always exact repeats. Equal entries are not always repeated. Where two headings read alike, the source gives them in different places.

Key:
[1] = tested on: TNF-α in bone marrow derived macrophages (BMDMs) stimulated by lipopolysaccharide; assay: TNF-α ELISA in LPS-stimulated bone marrow derived macrophages; format: cell-based, C57BL/6J mice; conditions: for Percentage of TNF-α in a model group (%): LPS 100 ng/mL 3 h
Procedure: (§1) (1) Collection of bone marrow derived macrophages (BMDMs): C57BL/6J mice were sacrificed by dislocation of cervical vertebra, completely soaked and sterilized with 75% ethanol and placed faceup on a mouse board to fix the four limbs, the skin of the hind limbs was cut, the limbs were cut at ankle joints and femoral joints, and muscles and knee joints were removed. Precooled serum-free DMEM was sucked with a 1 mL syringe to rinse the bone marrow until a leg bone turned white, a rinsing solution was filtered with a 200-mesh filter membrane and then collected into a 15 mL centrifuge tube, centrifugation was performed at 500×g for 5 min, a supernatant was discarded, and a cell precipitate was resuspended with 1 mL of a red blood cell lysis buffer. After stomatocytosis was performed for 1 min, 5 mL of DMEM was added to stop the stomatocytosis, centrifugation was performed at 500×g for 5 min, a supernatant was discarded, and cells at a lower layer were resuspended overnight with DMEM containing 10% of FBS. Monocytes were collected by centrifugation and then resuspended with a DMEM culture medium containing 20% of FBS, and M-CSF was added at a final concentration of 25 ng/mL. The cells were inoculated into a 96-well plate at a density of 6×10^5, cultured in a cell incubator with a CO2 concentration of 5% at 37° C. for 48 h, and then cultured by adding M-CSF with a final concentration of 25 ng/mL into each well for 48 h until the monocytes were subjected to adherent culture and differentiation to obtain macrophages.
(§2) The expression level of an inflammatory factor TNF-α in a cell supernatant was detected according to an operation instruction of a commercial ELISA kit, and the cell viability at different administration concentrations of (+)3C-20 was determined according to an operation instruction of a CCK-8 kit.

[2] = tested on: mice with acute lung injury caused by intratracheal instillation of lipopolysaccharide; assay: Survival rate of mice with acute lung injury caused by intratracheal instillation of LPS; format: in vivo, ICR mice; conditions: 50 mg/kg, LPS 20 mg/kg it, checked up to 72 h
Procedure: Grouping and administration of animals: 45 male ICR mice were randomly divided into 5 groups according to the body weight, including a control group, a model group, a positive dexamethasone (5 mg/kg) group, a (+)3C-20 (10 mg/kg) group and a (+)3C-20 (50 mg/kg) group, with 9 mice in each group. Drug preparation, an administration method and a modeling method were the same as those in Example 7. With the time of intratracheal instillation of LPS as 0 h, the survival state of the mice was checked at the time points of 4 h, 12 h, 16 h, 20 h, 24 h, 36 h, 48 h, 60 h and 72 h, and a survival curve was drawn based on statistics. Results are shown in FIG. 13 (where compared with LPS (20 mg/kg), ***P is less than 0.001).

[3] = tested on: bone marrow derived macrophages (BMDMs); assay: CCK-8 cell viability of bone marrow derived macrophages; format: cell-based, C57BL/6J mice; conditions: BMDM cell viability
Procedure: as §1, §2

RAW264.7 cells = assay: Cytotoxicity test, CCK-8 cell viability of RAW264.7 cells (24 h); format: cell-based, mice; conditions: 10 μM, RAW264.7 cell viability
Procedure: RAW264.7 cells were inoculated into a 96-well plate at a density of 1×10^5 per well. When the cell density was 70%-80%, the RAW264.7 cells were pretreated with 10 mM working solutions prepared from 18 balasubramide derivatives at a final concentration of 10 μM for 24 h, and then the cell viability was determined by a CCK-8 method.

[4] = tested on: inflammation genes in RAW264.7 macrophages stimulated by lipopolysaccharide; assay: qPCR expression level of inflammation genes in LPS-stimulated RAW264.7 macrophages; format: cell-based, mice; conditions: RAW264.7, LPS
Procedure: RAW264.7 cells were inoculated into a 24-well plate at a density of 5×10^5 per well. When the cell density was 70%-80%, the RAW264.7 cells were pretreated with (+)3C-20 (5 μM, 10 μM, 20 μM). After 3 h, lipopolysaccharide (LPS, 100 ng/mL) was added into all wells for action for 2 h except for a control group. A supernatant was discarded, and the cells at the bottom of the plate were fully lysed with Trizol (Nanjing Vazyme, R401-01). RNA was extracted according to an RNA extraction instruction, and subjected to reverse transcription to obtain cDNA, followed by qPCR according to an amplification method at 95° C. for a total of 5 min (at 95° C. for 10 s, and at 60° C. for 30 s) in 40 cycles, and finally statistical calculation was performed by ΔCt.

[5] = tested on: TNF-α in RAW264.7 macrophages stimulated by lipopolysaccharide; assay: TNF-α ELISA in cell supernatant of LPS-stimulated RAW264.7 macrophages; format: cell-based, mice
Procedure: RAW264.7 cells were inoculated into a 96-well plate at a density of 1×10^5 per well. When the cell density was 70%-80%, 18 balasubramide derivatives were prepared into 10 mM working solutions with DMSO, respectively, and then used to pretreat mononuclear macrophages RAW264.7 of mice at a final concentration of 10 μM. After 3 h, lipopolysaccharide (LPS, 100 ng/mL) was added into all wells for action for 2 h except for a control group. A supernatant was collected for later use, and the expression level of an inflammatory factor TNF-α in the cell supernatant was detected according to an operation instruction of a commercial ELISA kit.
RAW264.7 cells were inoculated into a 96-well plate at a density of 1×10^5 per well. When the cell density was 70%-80%, the RAW264.7 cells were pretreated with (+)3C-20 ([…]). After 3 h, lipopolysaccharide (LPS, 100 ng/mL) was added into all wells for action for 2 h except for a control group. The expression level of an inflammatory factor TNF-α in a cell supernatant was detected according to an operation instruction of a commercial ELISA kit, and the cell viability at different administration concentrations of (+)3C-20 was determined according to an operation instruction of a CCK-8 kit.

O=C(CCc1ccc(C(F)(F)F)cc1)O[C@@H]1C(=O)NCCc2c([nH]c3ccccc23)[C@H]1c1ccc(C(F)(F)F)cc1 [(+)-3C-20]
Percentage of TNF-α in a model group (%) ([1]; 0.1 μM): 88.17 ± 7.91%
Percentage of TNF-α in a model group (%) ([1]; 1 μM): 86.35 ± 7.41%
Percentage of TNF-α in a model group (%) ([1]; 2.5 μM): 62.94 ± 8.54 %
Percentage of TNF-α in a model group (%) ([1]; 5 μM): 35.12 ± 4.63 %
effective dose for inhibiting the expression of TNF-α for the BMDMs ([1]; LPS): 2.5 μM or 5 μM
survival rate of the model mice, in words [2]: can obviously improve the survival rate
Percentage of CCK-8 in a model group (%) ([3]; 0.1 μM): 100.35 ± 3.74%
Percentage of CCK-8 in a model group (%) ([3]; 1 μM): 96.71 ± 2.26%
Percentage of CCK-8 in a model group (%) ([3]; 2.5 μM): 97.49 ± 1.35%
Percentage of CCK-8 in a model group (%) ([3]; 5 μM): 89.87 ± 3.68%
Percentage of CCK-8 in a model group (%) (RAW264.7 cells): 103.97 ± 3.88% and 95.04 ± 3.22%
Change multiple of COX-2 ([4]; 5 μM): 4.20 ± 0.16
Change multiple of IL-1β ([4]; 5 μM): 62.02 ± 7.52
Change multiple of IL-6 ([4]; 5 μM): 23.17 ± 0.9
Change multiple of TNF-α ([4]; 5 μM): 11.03 ± 0.87
Change multiple of COX-2 ([4]; 10 μM): 3.95 ± 0.9
Change multiple of IL-1β ([4]; 10 μM): 28.51 ± 0.4
Change multiple of IL-6 ([4]; 10 μM): 16.09 ± 0.24
Change multiple of TNF-α ([4]; 10 μM): 6.00 ± 1.96
Change multiple of COX-2 ([4]; 20 μM): 3.49 ± 0.0^8
Change multiple of IL-1β ([4]; 20 μM): 12.58 ± 1.72
Change multiple of IL-6 ([4]; 20 μM): 6.53 ± 0.31
Change multiple of TNF-α ([4]; 20 μM): 4.49 ± 0.81
effective dose for anti-inflammatory activity (inhibition of expression of inflammation genes) [4]: 5 μM, 10 μM or 20 μM
anti-inflammatory activity (inhibition of expression of TNF-α in macrophages), in words ([5]; 10 μM, RAW264.7, LPS): better anti-inflammatory activity than other derivatives
activity at 0.1 µM ([5]; Mus musculus, RAW264.7, 0.1 μM, RAW264.7, LPS 100 ng/mL, read-out: Percentage of TNF-α in a model group (%)): 99.83 ± 0.89%
activity at 0.5 µM ([5]; Mus musculus, RAW264.7, 0.5 μM, RAW264.7, LPS 100 ng/mL, read-out: Percentage of TNF-α in a model group (%)): 98.1 ± 1.56%
activity at 1 µM ([5]; Mus musculus, RAW264.7, 1 μM, RAW264.7, LPS 100 ng/mL, read-out: Percentage of TNF-α in a model group (%)): 94.38 ± 0.45%
activity at 2 µM ([5]; Mus musculus, RAW264.7, 2 μM, RAW264.7, LPS 100 ng/mL, read-out: Percentage of TNF-α in a model group (%)): 88.6%
activity at 5 µM ([5]; Mus musculus, RAW264.7, 5 μM, RAW264.7, LPS 100 ng/mL, read-out: Percentage of TNF-α in a model group (%)): 83.7%
activity at 10 µM ([5]; Mus musculus, RAW264.7, 10 μM, RAW264.7, LPS 100 ng/mL (Table 3), read-out: Percentage of TNF-α in a model group (%)): 51.2%
activity at 20 µM ([5]; Mus musculus, RAW264.7, 20 μM, RAW264.7, LPS 100 ng/mL, read-out: Percentage of TNF-α in a model group (%)): 39.4%
activity at 10 µM ([5]; Mus musculus, RAW264.7, 2 h, 10 μM, 3 h pretreatment, LPS 100 ng/mL 2 h, RAW264.7, read-out: Percentage of TNF-α in a model group (%)): 39.9 ± 2.88%
effective dose for inhibiting the expression of TNF-α in the macrophages ([5]; RAW264.7, LPS): 2 to 20 µM
